According to US20250051762A1, “PLATFORM USING DNA-ENCODED SMALL MOLECULE LIBRARIES AND RNA SELECTION TO DESIGN SMALL MOLECULES THAT TARGET RNA” (University of Florida Research Foundation, Incorporated, priority 2021, published 2025):

Assays:
[1] = target: 5′GAG/3′CCC loop at pri-miR-27a's Drosha site; test: Binding affinity by microscale thermophoresis (MST), Cy5-labeled RNA; parameters: species or system human
Procedure: (§1) Binding affinity measurements: Binding affinities were measured by microscale thermophoresis (MST), performed on a Monolith NT.115 system (NanoTemper Technologies) with Cy5-labeled RNAs. These RNAs include: the 5′GAG/3′CCC SEQ ID NO: 16 loop at pri-miR-27a's Drosha site (Sequence:/5′-Cy5/rCrUrGrArGrGrUrGrArArArCrArUrCrCrCrArG SEQ ID NO: 17; Dharmacon), a related internal loop not selected by 9. 5′CAG/3′GCC SEQ ID NO: 17 loop (Sequence:/5′-Cy5/rCrUrCrArGrGrUrGrArArArCrArUrCrCrGrArG SEQ ID NO: 16; Dharmacon), and an RNA in which the loop is mutated to a base pair (Sequence:/5-Cy5/rCrUrGrArGrGrUrGrArArArCrArUrCrUrCrArG SEQ ID NO: 16; Dharmacon).
(§2) Briefly, Cy5-labeled RNA (10 nM) was prepared in 1× Binding Buffer and folded by heating at 60° C. for 5 min and then slowly cooling to room temperature. After cooling, Tween-20 was added to a final concentration of 0.1% (v/v). Compound solutions were prepared separately in 20 μL of 1× Binding Buffer at a final concentration of 5 μM (1% (v/v) DMSO), followed by 1:1 serial dilutions in 1× Binding Buffer. RNA and compound solutions were then mixed 1:1 by volume to a total of 20 μL.
(§3) Samples were incubated for 20 min at room temperature and then loaded into premium capillaries (NanoTemper Tech, Cat #MO-K025). The following parameters were used for MST measurements: 5-20% LED power (adjusted to keep fluorescence intensity between 2000 and 8000), 80% MST power, Laser-On time=30 s, Laser-Off time=25 s. The resulting data were analyzed by calculating the change in thermophoresis as a function of compound concentration and fitted by Equation 1, a one site binding model, in NanoTemper Tech's MST analysis software to yield the dissociation constant (Kd):
(§4) Where F is the concentration of fluorescently labeled RNA; unbound and bound refer to the thermophoresis signal at completely unbound and bound state of RNA, respectively; c is the concentration of the compound; f (c) is the thermophoresis signal at compound concentration of c; and Kd is the dissociation constant.

[2] = test system: MCF-10a cells that express WT pri-miR-27a; test: Migration of MCF-10a cells expressing WT pri-miR-27a; format: cell-based, human
Procedure: MCF-10a cells were transfected with plasmids to express pri-miR-27a and mutant pri-miR-27a in 12- or 24-well plates with Lipofectamine 2000 per the manufacturer's protocol. For treatment of compounds, stocks were diluted in growth medium and added to cells for 48 h. The miRCURY miR-27a LNA inhibitor (QIAGEN, Cat #339121) was used as a positive control by diluting in growth medium to a final concentration of 1 nM. The miRCURY LNA Negative Control (QIAGEN, Cat #YI00199007-DDA) was used as a negative control, which has also diluted in growth medium to a final concentration of 1 nM.
Migration assay: MDA-MB-231 cells were grown in 60 mm diameter dishes and treated as described in “Cell culture and compound treatment” for 12 h. The medium was then removed and replaced with growth medium lacking FBS but with the same concentration of compound. After 12 h of serum starvation, the cells were detached and seeded to ThinCert™ (GBO) 24-well hanging inserts with 8 μm pores (˜5×10^4 cells per insert). Fresh growth medium with FBS was dispended in a 24-well plate (600 μL each well), and the ThinCert™ hanging inserts containing cells were then placed into the wells. After incubating for 24 h, the growth medium in the inserts was removed, and the remaining cells were washed twice with 1×DPBS. […] The remaining cells were then imaged by microscopy and counted for quantification (3 fields of view per sample).

[3] = test system: fully paired RNA (loop mutated to a base pair); test: Binding affinity by MST, Cy5-labeled fully paired RNA
Procedure: as §1, §2, §3, §4

PP4C = test: Western blot of PP4C in MDA-MB-231 cells; format: cell-based, human; settings: relative to β-actin, 48 h
Procedure: Western Blotting: MDA-MB-231 cells were grown in 6-well plates to ˜80% confluency in complete growth medium and then incubated with 9 at the indicated concentrations for 48 h. Total protein was extracted using M-PER Mammalian Protein Extraction Reagent (Pierce Biotechnology) using the manufacturer's protocol and quantified using a Micro BCA Protein Assay Kit (Pierce Biotechnology). Approximately 50 μg of total protein was separated on a 10% SDS-polyacrylamide gel, and then transferred to a PVDF membrane. The membrane was washed with 1× Tris-buffered saline (TBS) and then blocked in 1×TBST (1×TBS containing 0.1% (v/v) Tween-20) containing 5% (w/v) milk for 1 h at room temperature. […] The membrane was again washed with 1×TBST, and protein expression was quantified using SuperSignal West Pico Chemiluminescent Substrate (Pierce Biotechnology) per the manufacturer's protocol.
To quantify b-actin expression, used for normalization, the membrane was stripped using 1× Stripping Buffer (200 mM glycine, pH 2.2 and 0.1% SDS) followed by washing in 1×TBST. […] The fold change of the target protein expression (PP4C or PDCD4) was calculated by normalizing its band intensity to b-actin band intensity using ImageJ.

C#CCN(CC(N)=O)C(=O)C[C@H](Cc1c[nH]c2ccccc12)NC(=O)[C@@H]1C[C@H](NC(=O)Cn2c(=O)[nH]c3ccccc3c2=O)CN1 [Compound 9]
Kd [1]: 90 ± 20 nM
migration [2]: reduced migration
saturable binding [3]: Saturable binding was not observed
PP4C expression (PP4C): upregulation
